In US10544106B2, “Certain chemical entities, compositions, and methods” (NeuPharma, Inc., priority 2016, dated 2020):

Target: BTK (Homo sapiens (Human), UniProt Q06187)
Assay: Z'-LYTE kinase inhibition assay against BTK
Type: biochemical
Conditions: for inhibition at 0.1 µM: compound at 100 nM, ATP concentration at Km; for IC50: series of concentrations, GraphPad Prism 5
In short: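 Z′-LYTE FRET readout: 1.04-10.4 ng BTK with 2 μM Tyr 01 peptide, ATP at Km, in 50 mM HEPES pH 7.5, 10 mM MgCl2, 1 mM EGTA, 0.01% BRIJ-35, 1% DMSO. 60 min kinase reaction at room temperature, then 60 min development; IC50 from 10-point, 3-fold titrations.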

Chain of BTK (Q06187 whole entry): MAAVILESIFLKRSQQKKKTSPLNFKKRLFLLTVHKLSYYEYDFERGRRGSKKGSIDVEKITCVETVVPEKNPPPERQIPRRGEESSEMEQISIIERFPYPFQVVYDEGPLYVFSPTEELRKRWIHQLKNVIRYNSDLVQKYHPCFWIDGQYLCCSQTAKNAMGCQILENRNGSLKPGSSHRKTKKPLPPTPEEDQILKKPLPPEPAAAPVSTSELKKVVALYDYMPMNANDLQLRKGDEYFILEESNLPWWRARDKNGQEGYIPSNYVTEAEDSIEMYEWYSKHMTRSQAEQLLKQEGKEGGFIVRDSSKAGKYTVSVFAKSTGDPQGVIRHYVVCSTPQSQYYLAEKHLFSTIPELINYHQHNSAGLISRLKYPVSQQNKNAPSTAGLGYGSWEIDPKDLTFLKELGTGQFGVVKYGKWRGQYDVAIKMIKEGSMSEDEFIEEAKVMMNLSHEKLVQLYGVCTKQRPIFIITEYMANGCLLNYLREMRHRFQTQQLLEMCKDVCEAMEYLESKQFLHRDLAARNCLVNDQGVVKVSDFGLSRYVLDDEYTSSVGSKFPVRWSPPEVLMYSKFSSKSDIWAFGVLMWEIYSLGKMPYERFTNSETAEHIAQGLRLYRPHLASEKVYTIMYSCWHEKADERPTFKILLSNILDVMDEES

| SMILES | inhibition at 0.1 µM [%] | IC50 [nM] |
| --- | --- | --- |
| C=CC(=O)Nc1cccc(-c2cc(-c3ccc(Nc4cccc(C(F)(F)F)c4)cc3)cc3cncnc23)c1 [C019, N-(3-(6-(4-((3-(trifluoromethyl)phenyl)amino)phenyl)quinazolin-8-yl)phenyl)acrylamide] | < 50 |  |
| C=CC(=O)N1CCC(c2cc(-c3ccc(C(=O)Nc4cc(C#N)ccn4)cc3)n3cnccc23)C1 (centres unmarked) [C161, 4-(5-(1-acryloylpyrrolidin-3-yl)pyrrolo[1,2-c]pyrimidin-7-yl)-N-(4-cyanopyridin-2-yl)benzamide] | > 50 | < 100 |
| C=CC(=O)Nc1cccc(-c2cc(-c3ccc(Oc4ccccn4)c(F)c3)cc3cnc(N)nc23)c1 [C158, N-(3-(2-amino-6-(3-fluoro-4-(pyridin-2-yloxy)phenyl)quinazolin-8-yl)phenyl)acrylamide] | > 50 | < 100 |
| C=CC(=O)Nc1cccc(-c2cc(-c3ccc(Oc4ccccn4)c(OC)c3)cc3cncnc23)c1 [C119, N-(3-(6-(3-methoxy-4-(pyridin-2-yloxy)phenyl)quinazolin-8-yl)phenyl)acrylamide] | > 50 |  |
| CC#CC(=O)N1CCC(c2nc(-c3ccc(C(=O)Nc4cc(C5CC5)ccn4)cc3)n3c(N)nccc23)C1 (centres unmarked) [C239, 4-(5-amino-1-(1-(but-2-ynoyl)pyrrolidin-3-yl)imidazo[1,5-c]pyrimidin-3-yl)-N-(4-cyclopropylpyridin-2-yl)benzamide] |  | < 100 |
| C=CC(=O)N1CCC(c2nc(-c3ccc(Oc4ncccc4C(F)(F)F)cc3)n3c(N)nccc23)C1 (centres unmarked) [C218, 1-(3-(5-amino-3-(4-((3-(trifluoro-methyl)pyridin-2-yl)oxy)phenyl)imidazo[1,5-c]pyrimidin-1-yl)pyrrolidin-1-yl)prop-2-en-1-one] | > 50 | < 100 |
| C=CC(=O)N1CCC(n2c(-c3ccccc3)nc3cncnc32)C1 (centres unmarked) [C021, 1-(3-(8-phenyl-9H-purin-9-yl)pyrrolidin-1-yl)prop-2-en-1-one] | < 50 |  |
| C=CC(=O)N1CCCC(c2cc(-c3cccnc3)cc3cncnc23)C1 (centres unmarked) [C031, 1-(3-(6-(pyridin-3-yl)quinazolin-8-yl)piperidin-1-yl)prop-2-en-1-one] | < 50 |  |
| C=CC(=O)N1CCCC(n2c(-c3ccccc3Cl)nc3cnc(N)nc32)C1 (centres unmarked) [C027, 1-(3-(2-amino-8-(2-chlorophenyl)-9H-purin-9-yl)piperidin-1-yl)prop-2-en-1-one] | < 50 |  |
| C=CC(=O)N1CCC(c2nc(-c3ccc(Oc4ncccc4C#N)cc3)n3c(N)nccc23)C1 (centres unmarked) [C227, 2-(4-(1-(1-acryloylpyrrolidin-3-yl)-5-amino-imidazo[1,5-c]pyrimidin-3-yl)phenoxy)nicotinonitrile] | > 50 |  |
| C=CC(=O)Nc1cccc(-c2cc(-c3ccc(Oc4cc(C(F)(F)F)ccn4)cc3F)cc3cncnc23)c1 [C180] | > 50 |  |
| C=CC(=O)Nc1cccc(-c2cc(-c3ccc(Oc4cc(C(N)=O)ccn4)cc3F)cc3cncnc23)c1 [C194, 2-(4-(8-(3-acrylamidophenyl)quinazolin-6-yl)-3-fluorophenoxy)isonicotinamide] | > 50 | < 100 |
| C=CC(=O)Nc1cccc(-c2cc(-c3ccc(Oc4ccccc4F)nc3)cc3cncnc23)c1 [C096, N-(3-(6-(6-(2-fluorophenoxy)pyridin-3-yl)quinazolin-8-yl)phenyl)acrylamide] | > 50 |  |
| C=CC(=O)N1CCC(c2cc(-c3ccc(C(=O)Nc4ccnnc4)cc3)cc3cncnc23)C1 (centres unmarked) [C147, 4-(8-(1-acryloylpyrrolidin-3-yl)quinazolin-6-yl)-N-(pyridazin-4-yl)benzamide] | < 50 |  |
| C=CC(=O)N1CCC(c2nc(-c3ccc(Oc4ncccc4F)cc3)n3c(N)nccc23)C1 (centres unmarked) [C226, 1-(3-(5-amino-3-(4-((3-fluoropyridin-2-yl)oxy)phenyl)imidazo[1,5-c]pyrimidin-1-yl)pyrrolidin-1-yl)prop-2-en-1-one] | > 50 |  |
| C=CC(=O)N1CCC(c2cc(-c3ccc(Oc4ncccc4F)cc3F)cc3cncnc23)C1 (centres unmarked) [C108, 1-(3-(6-(2-fluoro-4-((3-fluoropyridin-2-yl)oxy)phenyl)quinazolin-8-yl)pyrrolidin-1-yl)prop-2-en-1-one] | > 50 |  |
| C=CC(=O)N1CCC(c2nc(-c3ccc(Oc4cc(C(F)(F)F)ccn4)c(OC)c3)n3c(N)nccc23)C1 (centres unmarked) [C221, 1-(3-(5-amino-3-(3-methoxy-4-((4-(trifluoro-methyl)pyridin-2-yl)oxy)phenyl)imidazo[1,5-c]pyrimidin-1-yl)pyrrolidin-1-yl)prop-2-en-1-one] | > 50 |  |
| C=CC(=O)Nc1cccc(-c2cc(-c3ccncc3)cc3cncnc23)c1 [C006, N-(3-(6-(pyridin-4-yl)quinazolin-8-yl)phenyl)acrylamide] | > 50 | < 100 |

More lines, now with the values ahead:

| inhibition at 0.1 µM [%] | IC50 [nM] | SMILES |
| --- | --- | --- |
| < 50 |  | C=CC(=O)Nc1cccc(-c2cc(-c3cccc(Nc4cccc(C(F)(F)F)c4)c3)cc3cncnc23)c1 [C011, N-(3-(6-(3-((3-(trifluoromethyl)phenyl)amino)phenyl)quinazolin-8-yl)phenyl)acrylamide] |
| < 50 |  | C=CC(=O)N1CCC(c2cc(-c3ccc(C(=O)Nc4cc(C#N)ccn4)cc3)cc3cncnc23)C1 (centres unmarked) [C124, 4-(8-(1-acryloylpyrrolidin-3-yl)quinazolin-6-yl)-N-(4-cyanopyridin-2-yl)benzamide] |
| > 50 |  | C=CC(=O)Nc1cccc(-c2cc(-c3ccc(Oc4cccc(C(F)(F)F)c4)nc3)cc3cncnc23)c1 [C081, N-(3-(6-(6-(3-(trifluoromethyl)phenoxy)pyridin-3-yl)quinazolin-8-yl)phenyl)acrylamide] |
| > 50 | < 100 | C=CC(=O)Nc1cccc(-c2cc(-c3ccc(Oc4ncccc4Cl)cc3F)cc3cncnc23)c1 [C106, N-(3-(6-(4-((3-chloropyridin-2-yl)oxy)-2-fluorophenyl)quinazolin-8-yl)phenyl)acrylamide] |
| > 50 | < 100 | C=CC(=O)Nc1cccc(-c2cc(-c3ccc(C(=O)Nc4ccccn4)cc3C#N)cc3cncnc23)c1 [C201, 4-(8-(3-acrylamidophenyl)quinazolin-6-yl)-3-cyano-N-(pyridin-2-yl)benzamide] |
| > 50 |  | C=CC(=O)Nc1cccc(-c2cc(-c3ccccn3)cc3cncnc23)c1 [C118, N-(3-(6-(pyridin-2-yl)quinazolin-8-yl)phenyl)acrylamide] |
| < 50 |  | C=CC(=O)N1CCC(c2cc(-c3ccc(C(=O)Nc4ccccn4)cc3F)cc3cncnc23)C1 (centres unmarked) [C094, 4-(8-(1-acryloylpyrrolidin-3-yl)quinazolin-6-yl)-3-fluoro-N-(pyridin-2-yl)benzamide] |
| < 50 |  | C=CC(=O)N1CCCC(c2cc(-c3cccnc3)cc3cnc(N)nc23)C1 (centres unmarked) [C045, 1-(3-(2-amino-6-(pyridin-3-yl)quinazolin-8-yl)piperidin-1-yl)prop-2-en-1-one] |
| > 50 | < 100 | C=CC(=O)Nc1cccc(-c2cc(-c3ccc(C(=O)Nc4cc(C(F)(F)F)ccn4)cc3F)cc3cncnc23)c1 [C129, 4-(8-(3-acrylamidophenyl)quinazolin-6-yl)-3-fluoro-N-(4-(trifluoromethyl)pyridin-2-yl)benzamide] |
| > 50 | < 100 | C=CC(=O)Nc1cccc(-c2cc(-c3ccc(Oc4ccccn4)cc3OC)cc3cnc(N)nc23)c1 [C166, N-(3-(2-amino-6-(2-methoxy-4-(pyridin-2-yloxy)phenyl)quinazolin-8-yl)phenyl)acrylamide] |
| > 50 |  | CC#CC(=O)N1CCC(c2nc(-c3ccc(Oc4ccccn4)c(F)c3)n3c(N)nccc23)C1 (centres unmarked) [C209, 1-(3-(5-amino-3-(3-fluoro-4-(pyridin-2-yloxy)phenyl)imidazo[1,5-c]pyrimidin-1-yl)pyrrolidin-1-yl)but-2-yn-1-one] |
| > 50 |  | C=CC(=O)Nc1cccc(-c2cc(-c3ccc(C(=O)Nc4ncccc4F)cc3Cl)c(N)c3cncnc23)c1 [C217, 4-(8-(3-acrylamidophenyl)-5-aminoquinazolin-6-yl)-3-chloro-N-(3-fluoropyridin-2-yl)benzamide] |
| > 50 |  | C=CC(=O)N1CCC(c2cc(-c3ccc(C(=O)Nc4cc(C(F)(F)F)ccn4)cc3)cc3cncnc23)C1 (centres unmarked) [C125, 4-(8-(1-acryloylpyrrolidin-3-yl)quinazolin-6-yl)-N-(4-(trifluoromethyl)pyridin-2-yl)benzamide] |
| < 50 |  | C=CC(=O)N1CCCC(c2cc(-c3ccc(Oc4ccccc4)cc3)cc3c(N)ncnc23)C1 (centres unmarked) [C030, 1-(3-(4-amino-6-(4-phenoxyphenyl)quinazolin-8-yl)piperidin-1-yl)prop-2-en-1-one] |
| < 50 |  | C=CC(=O)N1CCC(c2cc(-c3ccc(Oc4ccccn4)c(OC)c3)cc3cncnc23)C1 (centres unmarked) [C146, 1-(3-(6-(3-methoxy-4-(pyridin-2-yloxy)phenyl)quinazolin-8-yl)pyrrolidin-1-yl)prop-2-en-1-one] |
|  | < 100 | C=CC(=O)N1CCCC(c2nc(-c3ccc(Oc4ccccn4)cc3)n3c(N)nccc23)C1 (centres unmarked) [C243, 1-(3-(5-amino-3-(4-(pyridin-2-yloxy)phenyl)imidazo[1,5-c]pyrimidin-1-yl)piperidin-1-yl)prop-2-en-1-one] |
| > 50 | < 100 | C=CC(=O)Nc1cccc(-c2cc(-c3ccc(Oc4cccc(F)c4)nc3)cc3cncnc23)c1 [C086, N-(3-(6-(6-(3-fluorophenoxy)pyridin-3-yl)quinazolin-8-yl)phenyl)acrylamide] |
| < 50 |  | C=CC(=O)Nc1cccc(-c2cc(-c3ccc(C(=O)Nc4ccccn4)cc3F)c(N)c3cncnc23)c1 [C177, 4-(8-(3-acrylamidophenyl)-5-aminoquinazolin-6-yl)-3-fluoro-N-(pyridin-2-yl)benzamide] |
| < 50 |  | C=CC(=O)N1CCC(c2cc(-c3ccc(C(=O)Nc4ccccn4)cc3)cc3cncnc23)C1 (centres unmarked) [C079, 4-(8-(1-acryloylpyrrolidin-3-yl)quinazolin-6-yl)-N-(pyridin-2-yl)benzamide] |
